Test results as given in patent publication US8324216B2, “Substituted piperazines” (Chemocentryx, Inc., priority 2002, dated 2012).

What was measured:
[1] = tested on: LPS induced synovial inflammation in rabbit knee; experiment: Rabbit model of destructive joint inflammation (intra-articular LPS); assay type: in vivo, female New Zealand rabbits; conditions: for synovium inflammation score: 16 h, score 1 minimal, 2 mild, 3 moderate, 4 moderate-marked, vehicle 3
Source text: This study design mimics the destructive joint inflammation seen in arthritis. Intra-articular injection of LPS causes an acute inflammatory response characterized by the release of cytokines and chemokines, many of which have been identified in rheumatoid arthritic joints. Marked increases in leukocytes occur in synovial fluid and in synovium in response to elevation of these chemotactic mediators. Selective antagonists of chemokine receptors have shown efficacy in this model (see Podolin, et al., J. Immunol. 169(11):6435-6444 (2002)).
Sixteen hours after the LPS injection, knees were lavaged and cells counts performed. Beneficial effects of treatment were determined by histopathologic evaluation of synovial inflammation. The following inflammation scores were used for the histopathologic evaluation: 1—minimal, 2—mild, 3—moderate, 4—moderate-marked.

[2] = tested on: arthritis induced clinical ankle swelling; experiment: Rat model of collagen induced arthritis (17 day developing type II collagen arthritis); assay type: in vivo, female Lewis rats; conditions: 25 mg/kg sub-cutaneous daily day 0 till day 17
Protocol: A 17 day developing type II collagen arthritis study was conducted to evaluate the effects of compound 1.028 on arthritis induced clinical ankle swelling. Rat collagen arthritis is an experimental model of polyarthritis that has been widely used for preclinical testing of numerous anti-arthritic agents (see Trentham, et al., J. Exp. Med. 146(3):857-868 (1977), Bendele, et al., Toxicologic Pathol. 27:134-142 (1999), Bendele, et al., Arthritis Rheum. 42:498-506 (1999)). The hallmarks of this model are reliable onset and progression of robust, easily measurable polyarticular inflammation, marked cartilage destruction in association with pannus formation and mild to moderate bone resorption and periosteal bone proliferation. Female Lewis rats (approximately 0.2 kilograms) were anesthetized with isoflurane and injected with Freund's Incomplete Adjuvant containing 2 mg/mL bovine type II collagen at the base of the tail and two sites on the back on days 0 and 6 of this 17 day study. Compound 1.028 was dosed daily in a sub-cutaneous manner from day 0 till day 17 at a dose of 25 mg/kg and a volume of 1 mL/kg in the following vehicle (20% N,N-dimethylacetamide, 75% corn oil, 5% Tween-80). Caliper measurements of the ankle joint diameter were taken, and reducing joint swelling was taken as a measure of efficacy.

Row | Compound | synovium inflammation score ([1]; dose 1=50 μM intra-articular with LPS 10 ng) | synovium inflammation score ([1]; dose 2=100 μM intra-articular with LPS 10 ng) | Inhibition of the inflammatory response ([1]; rabbit LPS intra-articular model) | Inhibition of arthritis induced ankle swelling [2] | change in joint diameter day9-day17 ([2]; vehicle 15.7% +/− 2.0%, normal 0% +/− 0.3%)
1 | Cc1c(Cl)c(C(F)(F)F)nn1CC(=O)N1CCN(c2ccc(F)cc2)CC1 [CCX-105] | 2 | 1 | significantly and specifically inhibit the inflammatory response |  | 
2 | COc1cc(N2CCN(C(=O)Cn3nc(C(F)(F)F)c(Cl)c3C)CC2)c(Cl)cc1Cl [Compound 1.028] |  |  |  | significantly and specifically inhibit the arthritis induced ankle swelling | 9.1% +/− 1.8%
